This note sets out measurements from patent publication US8962600B2, “Neuroprotective compounds and their use” (The Medical College of Wisconsin, Inc., priority 2009, dated 2015).

Each structure is given as a SMILES string.

One assay deals with p67phox. Description: LPS-induced p67phox protein expression in BV2 cells, Western blot. As to conditions: diapocynin 10 μM 30 min pretreatment, LPS 1 μg/ml 24 hr, back to basal level or below. The format is cell-based, mouse. The procedure:
Two cell models of neuroinflammation were used to evaluate the anti-neuroinflammatory property of diapocynin including the mouse BV2 microglial cell line, as well as primary microglia isolated from mouse brains. BV2 cells were obtained from the American Tissue Culture Collection. BV2 cells were maintained in RPMI containing 10% FBS and 100 units of pen/strep at 37° C. and 5% CO2. For treatments, RPMI containing 2% FBS and 100 units of pen/strep was used.
BV2 cell lysates containing equal amounts of protein were loaded in each lane and separated on a 10% SDS-PAGE gel. After separation, the protein was transferred to a nitrocellulose membrane. Non-specific binding sites were blocked with Li-cor blocking buffer for 45 min. The membranes were then treated with primary antibodies directed against NOS2 (mouse monoclonal 1:200) and p67phox (rabbit polyclonal 1:200). To confirm equal amounts of protein were loaded, membranes were also probed for β-actin with a β-actin antibody (dilution of 1:10,000). Secondary antibodies, donkey anti-mouse (Invitrogen) and conjugated anti-rabbit IgG (Rockland), were used at a dilution of 1:10,000 for 1 hr at room temperature. The membranes were imaged and captured using a Li-COR Odyssey infrared imaging system and software.
(A western blot detects proteins with antibodies after separation by electrophoresis.)

A further assay relates to TNF-α. Description: LPS-induced TNF-α release in primary microglia, LUMINEX immunoassay. Type of assay: cell-based, mouse. The settings on record: diapocynin 10 μM, LPS 24 hr. How it is done: Primary microglia were obtained from 1-2 day old C57/b16 mouse pups. Upon collection, whole brains were kept in ice-cold DMEM-F12 medium containing 10% FBS, 1× sodium pyruvate, 1× NEAAs, 100 units pen/strep, and Q. After collection, the brains were placed in 0.25% trypsin-EDTA and incubated at 37° C., with gentle shaking every 5-10 min. After 30 min, the trypsin was removed, and the brains are washed in warmed medium twice. After washing, medium was added to the brains, and the brains were homogenized using gentle pipetting, starting with a 25 ml pipette and moving to smaller pipette tips as the brains were broken up. When the brains were sufficiently homogenized to a single-cell suspension, they were filtered with a 70 μm nylon filter, which allowed microglia and astrocytes to be collected. The resultant cell suspension was plated in T-75 flasks and allowed to grow for 12-14 days at 37° C., 5% CO2. […]
Cytokine levels of BV2 and microglial cells treated with diapocynin were determined by LUMINEX® multiplex immunoassay. […]
Cytokine standards and controls were adjusted to 40 μl volume and the LUMINEX® Samples were run on a LUMINEX® 200 Total System and analyzed with Multiplex Analysis—LUMINEX® Software (Invitrogen, Carlsbad, Calif.).

A further assay relates to MPTP-intoxicated mice. Description: Open Field locomotor activity in MPTP-injected mice. The format is in vivo, C57BL/6 mice. The settings on record: MPTP- and diapocynin-treated mice; 300 mg/kg oral gavage; 5 days after last MPTP injection; 10 min session. How it is done:
Six- to 8-week-old C57BL/6 mice weighing 24 to 28 g were housed in standard conditions of constant temperature (22±1° C.), humidity (relative, 30%), and a 12-h light/dark cycle. Mice were allowed free access to food and water. Use of the animals and protocol procedures were approved and supervised by the Committee on Animal Care at Iowa State University (Ames, Iowa). For neurodegeneration studies, mice either received diapocynin (300 mg/kg dose) by oral gavage for 1 day (pre-treatment before MPTP administration), 5 days (co-treatment with MPTP), or 7 days (post-treatment after MPTP).
Two types of behavioral tests were performed including an Open Field experiment for testing locomotor activities and a Rotarod experiment to test coordination of movement of mice after MPTP and diapocynin treatment (48, 56). An Open Field activity monitor (model RXYZCM-16; AccuScan, Columbus, Ohio) was used to measure the spontaneous activity of mice. The activity chamber was 40×40×30.5 cm, made of clear PLEXIGLAS® and covered with a PLEXIGLAS® lid with holes for ventilation. Infrared monitoring sensors were located every 2.54 cm along the perimeter (16 infrared beams along each side) and 2.5 cm above the floor. Two additional sets of 16 sensors were located 8.0 cm above the floor on opposite sides. Data were collected and analyzed by a VersaMax Analyzer (model CDA-8, AccuScan). […]

As for `COc1cc(C(C)=O)cc(-c2cc(C(C)=O)cc(OC)c2O)c1O` [diapocynin], the “reducing LPS-induced p67phox protein expression” value in the assay with p67phox is “extremely effective”. Further, in the assay on TNF-α, the “blocking LPS-induced release of TNF-α” value is listed as “very effective”. Also, in the assay with MPTP-intoxicated mice, the “horizontal activity (Open Field)” value is on record as “significantly improved” and the “vertical activity (Open Field)” value is recorded as “significantly improved”.
